{"source": "patent US20220143210A1", "about": "“HYDROGEL COMPOSITIONS AND METHODS FOR TREATEMENT OF MALIGNANCIES” (Fred Hutchinson Cancer Research Center, priority 2019, published 2022)", "key": {"[1]": {"tested_on": "GFP+ HGG cells in a 1:1 co-culture with murine macrophages", "format": "cell-based, human PDX tumor cells, murine macrophages (C57/B6 mouse)", "details": "single agent; macrophage species not specified", "protocol": "All chemokines were purchased from Sigma-Aldrich. LEAF hCD47 mAb was purchased from eBioscience (cat number, B6H12 clone). Primary murine macrophages were derived from bone marrow of a C57/B6 mouse. Bone marrow derived mononuclear progenitors were cultured in RPMI with CSF-1 for 3 days before freezing/use in assays. Patient-derived xenograft (PDX) were obtained from autopsy or biopsy. PDX lines were cultured in Neuralcult Serum Free (Stem cell tech) with Neuralcult supplement (cat no), 100 U ml-1 PenStrep, Glutamax, EGF and FGF. Cells were grown adherent on tissue-culture treated plates after at least 2 hours of Laminin coating (Sigma-aldrich) in an incubator at 37° C. in 5% CO2. All PDX lines were transduced with H2b-GFP and Luciferase to assist in cell counting and tumor size visualization via IVIS. Xenograft tumors were established in the cortex of female athymic mice nu/nu (Harlan) mice. Tumors were allowed to grow to an IVIS threshold before study enrollment. All mouse studies were carried out following protocols approved by the IACUC at FHCRC (protocol 1457) and complied with all relevant ethical regulations.\nPhagocytosis assays were performed using the Basic Analyzer software on Essen Bio's Incucyte Zoom 2016 and S3. […] Using the aforementioned definitions, the Incucyte calculated the reduction of GFP+ nuclei in the wells over time in response to those factors. […]"}, "[2]": {"tested_on": "GFP+ PDX brain tumor cells (HGG)", "assay": "In vitro chemotaxis (transwell, Incucyte) assay", "format": "cell-based, human", "details": "for chemotaxis / migration of PDX brain tumor cells: chemokine gradient, transwell", "protocol": "Cell migration assays were performed using the Chemotaxis software on Essen Bio's Incucyte Zoom 2016 and S3. Specialized 96 well transwell plates were supplied by Essen Bio. GFP+ PDX cells were cultured in the aforementioned Neuralcult media without EGF/FGF supplementation. The Incucyte software definitions were trained to identify GFP+ rounded objects spanning the range of healthy nuclei found in my cultures.\nIt has been hypothesized that it is possible to exploit the migratory behavior of high grade brain tumors by employing chemokine gradients to attract them out of inoperable locations and into a location within the brain that maximizes their exposure to opsonin and macrophages. […] Flow analysis confirms the expression of the requisite chemokine receptors on the HGG line used in our chemotaxis assay, as shown in FIGS. 2A-2C."}, "[3]": {"details": "administered intravenously, clinically; cited from earlier work"}}, "note": "Entries after “also recorded” stand apart in the source; their conditions may differ."}
{"molecule": "CCOCc1nc2c(N)nc3ccccc3c2n1CC(C)(C)O", "note": "[R848, reference compound]", "values": [{"measurement": "effects on the tumor cells in co-culture", "setting": "[1]", "result": "mild effects"}]}
{"molecule": "CXCL8: classical immune cell chemokine, purchased from Sigma-Aldrich", "values": [{"measurement": "chemotaxis / migration of PDX brain tumor cells", "setting": "[2]", "result": "induced varying degrees of chemotaxis; also recorded: effective at eliciting migration"}]}
{"molecule": "CXCL12: classical immune cell chemokine, purchased from Sigma-Aldrich", "values": [{"measurement": "chemotaxis / migration of PDX brain tumor cells", "setting": "[2]", "result": "induced varying degrees of chemotaxis; also recorded: effective at eliciting migration"}]}
{"molecule": "CCL2: classical immune cell chemokine, purchased from Sigma-Aldrich", "values": [{"measurement": "relative chemotactic potency across PDX lines", "setting": "[2]; across all lines tested", "result": "most potency across all lines tested"}, {"measurement": "chemotaxis / migration of PDX brain tumor cells", "setting": "[2]", "result": "induced varying degrees of chemotaxis; also recorded: effective at eliciting chemotaxis; also recorded: effective at eliciting migration"}]}
{"molecule": "IFNg: M1-polarizing agent", "values": [{"measurement": "effects on the tumor cells in co-culture", "setting": "[1]", "result": "mild effects"}]}
{"molecule": "IFNg: M1-polarizing agent (protein, UniProt P01579 24-161, looked up) Interferon gamma: QDPYVKEAENLKKYFNAGHSDVADNGTLFLGILKNWKEESDRKIMQSQIVSFYFKLFKNFKDDQSIQKSVETIKEDMNVKFFNSNKKKRDDFEKLTNYSVTDLNVQRKAIHELIQVMAELSPAAKTGKRKRSQMLFRG", "values": [{"measurement": "systemic toxicity", "setting": "[3]", "result": "dramatic systemic toxicity"}]}
